The text below walks through data of patent US20150315188A1, “COMPOUNDS AND METHODS FOR TREATMENT OF HYPERTENSION” (MEDIVATION TECHNOLOGIES, INC., priority 2012, published 2015).

Design in all cases: purchased Milipore (Millipore)
Assay [1] concerns the target T1, Human adrenergic α2B receptor (Homo sapiens, UniProt P18089).
T1 sequence (P18089 1-450): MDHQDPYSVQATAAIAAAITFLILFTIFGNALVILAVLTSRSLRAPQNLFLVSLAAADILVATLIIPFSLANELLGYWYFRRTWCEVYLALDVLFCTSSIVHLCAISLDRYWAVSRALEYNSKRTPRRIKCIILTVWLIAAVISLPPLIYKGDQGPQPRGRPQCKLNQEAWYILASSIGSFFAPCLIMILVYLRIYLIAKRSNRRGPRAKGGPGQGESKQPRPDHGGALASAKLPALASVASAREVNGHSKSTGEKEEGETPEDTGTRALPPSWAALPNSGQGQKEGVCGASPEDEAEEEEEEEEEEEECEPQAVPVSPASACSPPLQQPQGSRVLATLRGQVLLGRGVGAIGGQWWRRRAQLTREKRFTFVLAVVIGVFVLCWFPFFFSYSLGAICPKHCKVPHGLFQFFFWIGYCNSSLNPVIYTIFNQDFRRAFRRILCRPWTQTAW
Nature of the assay: Radioligand binding, adrenergic α2B (Protocol Group B). The conditions noted are these: for inhibition at 0.1 µM: 0.1 μM compound, read-out: Percentage inhibition of ligand binding, Adrenergic α2B (0.1 μM); for Ki: estimated Ki, read-out: Ki α2B; for inhibition at 0.01 µM: 10 nM compound, read-out: Percentage inhibition of ligand binding, Adrenergic α2B (10 nM); for inhibition at 0.03 µM: read-out: Percentage inhibition of ligand binding, Adrenergic α2B (30 nM). In outline:
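Recombinant human α2B receptor membranes incubated with compounds in 50 mM Tris-HCl pH 7.4, 5 mM MgCl2, 1 mM CaCl2, 0.2% BSA, 1% DMSO vehicle. Non-specific binding defined with 10 μM rauwolscine. Values are percent inhibition of specific binding or estimated Ki.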

Assay [2] deals with T2, Human adrenergic α2A receptor (Homo sapiens, UniProt P08913).
T2 sequence (P08913 1-465): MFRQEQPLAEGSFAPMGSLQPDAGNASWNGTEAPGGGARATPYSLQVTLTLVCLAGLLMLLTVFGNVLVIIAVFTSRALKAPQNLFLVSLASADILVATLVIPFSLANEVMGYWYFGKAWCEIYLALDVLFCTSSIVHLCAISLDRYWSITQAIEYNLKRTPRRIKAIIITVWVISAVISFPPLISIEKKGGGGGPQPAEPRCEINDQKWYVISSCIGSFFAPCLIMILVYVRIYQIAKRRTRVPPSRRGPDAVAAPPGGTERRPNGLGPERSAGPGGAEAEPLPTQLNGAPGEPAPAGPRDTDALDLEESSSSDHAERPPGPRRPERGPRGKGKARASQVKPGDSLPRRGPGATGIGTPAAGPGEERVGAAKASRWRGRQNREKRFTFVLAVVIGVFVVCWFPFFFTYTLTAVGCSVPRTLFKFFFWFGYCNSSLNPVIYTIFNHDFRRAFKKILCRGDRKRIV
Nature of the assay: Radioligand binding, adrenergic α2A (Protocol Group B). Particulars: for Ki: estimated Ki; for inhibition at 0.1 µM: read-out: Percentage inhibition of ligand binding, Adrenergic α2A (0.1 μM); for inhibition at 0.3 µM: read-out: Percentage inhibition of ligand binding, Adrenergic α2A (0.3 μM). In outline:
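Membranes from recombinant cells expressing the receptor, in 50 mM Tris-HCl pH 7.4 with 5 mM MgCl2, 1 mM CaCl2, 0.2% BSA; compounds incubated with 2 nM [^3H]MK-912 for 60 min at 25° C. Nonspecific binding defined by 10 μM rauwolscine; filtration, counting; percent inhibition of specific binding, or estimated Ki.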

For assay [3], the target named is T3, Human adrenergic α1B receptor (Homo sapiens, UniProt P35368).
T3 sequence (P35368 1-520): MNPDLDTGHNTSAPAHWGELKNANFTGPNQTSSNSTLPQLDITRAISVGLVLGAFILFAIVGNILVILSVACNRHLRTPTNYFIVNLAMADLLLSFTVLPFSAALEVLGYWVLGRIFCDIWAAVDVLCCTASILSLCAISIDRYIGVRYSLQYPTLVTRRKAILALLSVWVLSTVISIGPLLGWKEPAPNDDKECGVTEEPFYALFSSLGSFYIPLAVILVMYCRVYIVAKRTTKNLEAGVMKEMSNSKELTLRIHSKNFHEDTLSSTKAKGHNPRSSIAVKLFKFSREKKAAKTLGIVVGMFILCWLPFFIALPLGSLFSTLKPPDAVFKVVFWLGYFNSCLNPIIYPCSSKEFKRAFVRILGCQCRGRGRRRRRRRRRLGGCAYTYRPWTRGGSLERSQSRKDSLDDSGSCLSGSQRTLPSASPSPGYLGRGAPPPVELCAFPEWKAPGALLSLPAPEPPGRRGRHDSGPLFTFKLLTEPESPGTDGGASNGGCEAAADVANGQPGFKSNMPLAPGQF
Nature of the assay: Radioligand binding, adrenergic α1B (Protocol Group B). Particulars: for Ki: estimated Ki; for inhibition at 0.1 µM: read-out: Percentage inhibition of ligand binding, Adrenergic α1B (0.1 μM); for inhibition at 0.3 µM: read-out: Percentage inhibition of ligand binding, Adrenergic α1B (0.3 μM). In outline:
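Recombinant human α1B membranes incubated with test compound and 0.3 nM [3H]prazosin, 60 min at 25 °C, in 50 mM Tris-HCl pH 7.4, 10 mM MgCl2, 1 mM EDTA; nonspecific binding with 10 μM prazosin. Filter-bound radioactivity counted; values are % inhibition of specific binding or estimated Ki.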

The mark [4] stands for this setting: 0.1 μM compound, Protocol Group B, 0.1 µM.
Where [5] appears, read: 0.3 μM compound, Protocol Group B, 0.3 µM.
The mark [6] stands for this setting: 30 nM compound, Protocol Group B.
Where [7] appears, read: 0.1 μM compound, Protocol Group B.
The mark [8] stands for this setting: 0.3 μM compound, Protocol Group B.

Structures are written as SMILES.

One may read the inhibition as the relative decrease from the control value, in per cent. As a reminder, the Ki is the equilibrium dissociation constant of an inhibitor or competing ligand from its target. For `Cc1cc(F)c2c(c1)c1c(n2CC(C)(O)c2cccnc2)CCN2CCCC12` (centres unmarked) [Compound No. 79a], in assay [1] (30 nM compound, Protocol Group B, 0.03 µM), the “Percentage inhibition of ligand binding, Adrenergic α2B (30 nM)” value was 96%. Moreover, in assay [1] (Protocol Group B), the inhibition at 0.1 µM was 97%. The results for the Ki in assay [1] (Protocol Group B), in assay [2] (Protocol Group B) and in assay [3] (Protocol Group B) were 0.77 nM, 10.6 nM and 42.7 nM, respectively. Besides, the “Percentage inhibition of ligand binding, Adrenergic α2A (0.1 μM)” value in assay [2] (setting [4]) is given as 81%. Further, in assay [2] (setting [5]), the “Percentage inhibition of ligand binding, Adrenergic α2A (0.3 μM)” value was found to be 93%. Also, in assay [3] (setting [4]), the “Percentage inhibition of ligand binding, Adrenergic α1B (0.1 μM)” value is recorded as 47%. Further, in assay [3] (setting [5]), the “Percentage inhibition of ligand binding, Adrenergic α1B (0.3 μM)” value is on record as 79%.

Consider `Cc1ccc2c(c1)c1c(n2CC(O)c2ccncc2)CC[N+]2([O-])CCCC12` (centres unmarked) [compound 23, 7-(2-hydroxy-2-(pyridin-4-yl)ethyl)-10-methyl-1,2,3,4,5,6,7,11c-octahydroindolizino[7,8-b]indole 4-oxide], for which the inhibition at 0.0001 µM in assay [1] (0.1 nM compound, concentration series, read-out: Percentage inhibition of ligand binding, Adrenergic α2B, 0.1 nM) is 13%. The inhibition at 0.00032 µM in assay [1] (0.32 nM compound, concentration series, read-out: Percentage inhibition of ligand binding, Adrenergic α2B, 0.32 nM) turned out to be 5%. For the same compound, the inhibition at 0.001 µM in assay [1] (1 nM compound, concentration series, read-out: Percentage inhibition of ligand binding, Adrenergic α2B, 1 nM) is 2%. For the same compound, the inhibition at 0.0032 µM in assay [1] (3.2 nM compound, concentration series, read-out: Percentage inhibition of ligand binding, Adrenergic α2B, 3.2 nM) came to 40%; in assay [2] (3.2 nM compound, concentration series, read-out: Percentage inhibition of ligand binding, Adrenergic α2A, 3.2 nM), 14%; in assay [3] (3.2 nM compound, concentration series, read-out: Percentage inhibition of ligand binding, Adrenergic α1B, 3.2 nM), 21%. In addition, the inhibition at 0.01 µM in assay [1] (Protocol Group B) was determined as 65%; in assay [2] (10 nM compound, concentration series, read-out: Percentage inhibition of ligand binding, Adrenergic α2A, 10 nM), 21%; in assay [3] (10 nM compound, concentration series, read-out: Percentage inhibition of ligand binding, Adrenergic α1B, 10 nM), 22%. For the same compound, the inhibition at 0.03 µM was 88% in assay [1] (setting [6]); 37% in assay [2] (0.03 μM compound, concentration series, read-out: Percentage inhibition of ligand binding, Adrenergic α2A, 0.03 μM); 32% in assay [3] (0.03 μM compound, concentration series, read-out: Percentage inhibition of ligand binding, Adrenergic α1B, 0.03 μM). In addition, the inhibition at 0.1 µM was found to be 92% in assay [1] (Protocol Group B), 55% in assay [2] (setting [7]) and 53% in assay [3] (setting [7]). Also, the inhibition at 0.32 µM in assay [1] (0.32 μM compound, concentration series, read-out: Percentage inhibition of ligand binding, Adrenergic α2B, 0.32 μM) turned out to be 105%; in assay [2] (0.32 μM compound, concentration series, read-out: Percentage inhibition of ligand binding, Adrenergic α2A, 0.32 μM) it was 67%; in assay [3] (0.32 μM compound, concentration series, read-out: Percentage inhibition of ligand binding, Adrenergic α1B, 0.32 μM) it was 64%. The figures for the Ki in assay [1] (Protocol Group B), in assay [2] (Protocol Group B) and in assay [3] (Protocol Group B) were 2.24 nM, 20.8 nM and 56.4 nM, respectively. For the same compound, the results for the inhibition at 0.3 µM in assay [2] (setting [8]) and in assay [3] (setting [8]) were 64% and 65%, respectively. The inhibition at 1 µM amounted to 76% in assay [2] (1 μM compound, concentration series, read-out: Percentage inhibition of ligand binding, Adrenergic α2A, 1 μM) and 72% in assay [3] (1 μM compound, concentration series, read-out: Percentage inhibition of ligand binding, Adrenergic α1B, 1 μM). Moreover, the inhibition at 3.2 µM in assay [2] (3.2 μM compound, concentration series, read-out: Percentage inhibition of ligand binding, Adrenergic α2A, 3.2 μM) is 88%; in assay [3] (3.2 μM compound, concentration series, read-out: Percentage inhibition of ligand binding, Adrenergic α1B, 3.2 μM), 85%. In addition, the inhibition at 10 µM was 92% in assay [2] (10 μM compound, concentration series, read-out: Percentage inhibition of ligand binding, Adrenergic α2A, 10 μM) and 93% in assay [3] (10 μM compound, concentration series, read-out: Percentage inhibition of ligand binding, Adrenergic α1B, 10 μM).

As to `Cc1ccc2c(c1)c1c(n2C[C@@H](OC2CCCC2)c2ccncc2)CCN2CCC[C@H]12` [compound 82, (11cR)-7-[(25)-2-(cyclopentoxy)-2-(4-pyridyl)ethyl]-10-methyl-1,2,3,5,6,11c-hexahydroindolizino[7,8-b]indole], the inhibition at 0.01 µM in assay [1] (Protocol Group B) worked out at 98%. In addition, in assay [1] (setting [6]), the inhibition at 0.03 µM turned out to be 99%. Besides, the results for the Ki in assay [1] (Protocol Group B), in assay [2] (Protocol Group B) and in assay [3] (Protocol Group B) were 1.59 nM, 4.5 nM and 32.7 nM, respectively. For the same compound, the inhibition at 0.1 µM was determined as 92% in assay [2] (setting [7]) and 56% in assay [3] (setting [7]). For the same compound, the inhibition at 0.3 µM in assay [2] (setting [8]) was 97%; in assay [3] (setting [8]), 81%.
